Assay results as given in patent US5856506A, “Phosphatase inhibitors and methods of use thereof” (University of Pittsburgh, priority 1997, dated 1999).
Where two headings read alike, the source gives them in different places.

Experiments:
[1] = target: PP2A (Homo sapiens, UniProt P67775); details: background, literature, cited from earlier work
[2] = system: PP1; experiment: Phosphatase activity by [32P] release from phosphorylase-a or phosphohistone (Honkanen method); assay type: biochemical; details: 100 μM inhibitor; none = 100
Protocol: (§1) It has been found in accordance with the present invention that compounds of formula I are capable of inhibiting serine/threonine protein phosphatases. Inhibition of serine/threonine protein phosphatases is defined herein as inhibition of the activity of one or more of PP1, PP2A or PP3 at a concentration of 100 μM or less of the inhibitor compound. In a preferred embodiment, the activity of the phosphatase is inhibited by at least 10%. In more preferred embodiments, the activity of the phophatase is inhibited by at least 25%, or even more preferably, by at least 50%. Inhibition of PP1, PP2A or PP3 can be assessed by methods known to one of ordinary skill in the art. Suitable assays are described, for example by Honkanen et al. (1994) Toxicon 32:339 and Honkanen et al. (1990) J. Biol. Chem. 265: 19401, the disclosures of which are incorporated herein by reference. Briefly, phosphatase activity is determined by quantifying the [^32 p] released from a ^32 p-labeled substrate such as phosphohistone or phosphorylase-a. Decreased [^32 p] release in the presence of the compounds of the present invention relative to control samples provides a measure of the ability of the compounds of the invention to inhibit PP1, PP2A or PP3.
(§2) Phosphatase activity and the inhibitory activity of the compounds of Table 1 were determined by the method of Honkanen et al. (1994) Toxicon 32:339. Briefly, phosphatase activity against phosphorylase-a or phosphohistone was 25 determined by the quantification of liberated [^32 p]. Assays, 80 μl total volume, containing 50 mM Tris-HCl, pH 7.4, 0.5 mM DTT, 1 mM EDTA (assay buffer) and [^32 p]phosphoprotein (1-2 μM PO4), were conducted as described previously (Honkanen et al., 1991 Mol. Pharmac. 40:577). Dephosphorylation reactions were routinely conducted for 5-10 min. using phosphorylase-a as a substrate and for 10-20 min. using phosphohistone. In all assays the dephosphorylation of substrate was kept to less than 10% of the total phosphorylated substrate available, and the reactions were adjusted to ensure that enzyme activity was linear with respect to enzyme concentration and time. [^32 p]Phosphate liberated by the enzymes was extracted as a phosphomolybdate complex and measured according to the methods of Killilea et al. (1978) Arch. Biochem. Biophys. 191:638. Inhibition of protein phosphatase activity by inhibitors was determined by adding the 100 μM of inhibitors to the enzyme mixture 5-10 min. prior to initiating the reaction with the addition of substrate.

[3] = target: PP2A (Bos taurus, UniProt P67774); experiment: as above; assay type: biochemical; details: 100 μM inhibitor; none = 100; read-out: PP2A, percent inhibition relative to control (100%)
PP2A (Bos taurus, UniProt P67774), sequence (P67774 whole entry): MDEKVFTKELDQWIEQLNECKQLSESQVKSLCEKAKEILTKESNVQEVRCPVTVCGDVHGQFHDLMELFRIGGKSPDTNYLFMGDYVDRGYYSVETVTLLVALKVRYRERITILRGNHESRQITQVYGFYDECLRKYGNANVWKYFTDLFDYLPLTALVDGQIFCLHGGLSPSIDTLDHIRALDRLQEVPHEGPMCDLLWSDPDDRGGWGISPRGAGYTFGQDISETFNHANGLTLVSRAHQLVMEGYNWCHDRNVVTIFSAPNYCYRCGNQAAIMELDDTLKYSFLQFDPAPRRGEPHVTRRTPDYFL
Protocol: as §1, §2

[4] = system: PP3; experiment: as above; assay type: biochemical; details: 100 μM inhibitor; none = 100
Protocol: as §1, §2

[5] = system: Recombinant human CDC25B; experiment: CDC25B phosphatase assay, GST fusion protein, fluorescein diphosphate; assay type: biochemical; details: none = 100; 1 hour preincubation; concentration not given (0.3-100 μM tested)
Protocol: The compounds of the present invention are also capable of inhibiting dual specificity phosphatases, for example CDC25A and CDC25B. Phosphatases CDC25A and CDC25B are disclosed in U.S. Pat. No. 5,441,880. Inhibition of dual specificity phosphatases is defined herein as inhibition of the activity of CDC25A and/or CDC25B at a concentration of 100 μM of the inhibitor compound. In a preferred embodiment, the activity of the phosphatase is inhibited by at least 10%. In more preferred embodiments, the activity of the phophatase is inhibited by at least 25%, or even more preferably, by at least 50%. The ability of the compounds of the present invention to inhibit the phosphatases can be determined by measuring the effect of the compounds on the ability of CDC25 or CDC25B to dephosphorylate a substrate. Appropriate methods are known to those of ordinary skill in the art, and include, for example, calorimetric assays. A suitable assay is described in U.S. Pat. No. 5,441,880, the disclosure of which is incorporated herein by reference. […] The assay may be performed as a rapid calorimetric microtitration plate assay.
Compounds 1a-1r were assessed for ability to inhibit CDC25A and CDC25B activity. Recombinant human CDC25A and CDC25B were obtained as a glutahione-S-transferase (GST) fusion protein using human cDNA and standard molecular biological methods. The cDNA constructs are in a plasmid that is expressed in E. coli under the control of isopropyl-beta-D-[…] (IPTG). The bacterial pellet was disrupted by sonication, and centrifuged at 10,000×g. Using glutathione-agarose beads, the fusion protein was purified from postmicrosomal supernant fraction as described by Baratte et al. (1992) Anticancer Res. 12: 873-880. Phosphatase activity was assayed with a spectrofluorimeter under the following conditions: 1 unit (1 U=amount of protein that induces 33 fluoresence units/minute of product) of fusion protein in a final incubation mixture (150 μL) comprised of 25 mM Tris (pH=8.0), 5 mM EDTA, 33 μg/ml BSA, and 20 μM fluorescein diphosphate in 96-well microtiter plates. Plates were preincubated for 1 hour with 0 (control), 0.3, 1, 3, 10, 30, 100 μM compounds at room temperature. After the 1 hour incubation at room temperature, fluorescence of the fluorescein product (Ex. 485 nm; Em. 530 nm) were measured with a Biosystems Cytofluor II (Framingham, Mass.).

[6] = system: human MDA-MB-231 breast cancer cells; experiment: Antiproliferative activity, tetrazolium reduction assay (Lazo method), 72 h; assay type: cell-based; details: MDA-MB-231, 72 h
Excerpt: The ability of the compounds of the present invention to inhibit proliferation can be assessed by methods known to those of ordinary skill in the art. For example, proliferating cells can be contacted with a compound of the invention, and cell numbers determined. A reduction in cell number in treated versus untreated cells provides a measure of the ability of the present compounds to inhibit proliferation. In a preferred embodiment the cells to be treated are cancer cells, for example breast cancer cells such as the CDC25B+ breast cancer cells MDA-MB-231, which are available from the American Type Culture Collection (Accession No. HTB-26). The antiproliferative activity of the present compounds can also be measured by the assay described by Lazo et al. (1995) J. Biol. Chem. 270: 5506, the disclosure of which is incorporated herein by reference. The microtiter-based calorimetric assay is based upon the reduction of 3-[4,5-dimethylthiazol-2-yl]-2,5-diphenyl tetrazolium bromide by living cells, and permits evaluation of the cytostatic or cytotoxic actions of large numbers of compounds quickly in mouse embryonic fibroblasts and human CDC25B+ breast cancer cells. Briefly, exponentially growing CDC25B+ MDA-MB-231 cells are treated continuously with from 0 to 100 μM of a compound of the invention, and cell proliferation is determined calorimetrically after 72 hours by assessing the ability of the cells to reduce 3-[4,5-dimethylthiazol-2-yl]-2,5-diphenyl tetrazolium bromide.
Human MDA-MB-231 breast carcinoma cells were obtained from the American Type Culture Collection at passage 28 and were maintained for no longer than 20 passages. The cells were grown in RPMI-1640 supplemented with 1% penicillin (100 μg/mL) and streptomycin (100 μg/mL), 1% L-glutamate,and 10% fetal bovine serum in a humidified incubator at 37° C. under 5% CO2 in air. Cells were routinely found free of mycoplasma. To remove cells from the monolayer for passage or flow cytometry, cells were washed two times with phosphate buffer and briefly (<3 min) treated with 0.05% trypsin/2 mM EDTA at room temperature. After the addition of at least two volumes of growth medium containing 10W fetal bovine serum, the cells were centrifuged at 1,000×g for 5 min. Compounds were made into stock solutions using DMSO, and stored at -20° C. All compounds and controls were added to obtain a final concentration of 0.1-0.2% (v/v) of the final solution for experiments.
The antiproliferative activity of the compounds was determined by the method of Lazo et al. (1995) J. Biol. Chem. 270:5506. Briefly, cells (6.5×10^3 cells/cm^2) were plated in 96 well flat bottom plates for the cytotoxicity studies and incubated at 37° C. for 48 h. The plating medium was aspirated off 96 well plates and 200 μL of growth medium containing the compound was added per well. Compounds were used at from O to the highest available concentration which ranged from 30 to 100 μM. Plates were incubated for 72 h, and then washed 4× with serum free medium. After washing, 50 μL of 3-[4,5-dimethylthiazol-2-yl]-2,5-diphenyl tetrazolium bromide solution (2 mg/mL) was added to each well, followed by 150 μL of complete growth medium. Plates were then incubated an additional 4 h at 37° C. The solution was aspirated off, 200 μL of DMSO added, and the plates were shaken for 30 min at room temperature. Absorbance at 540 nm was determined with a Titertek Multiskan Plus plate reader. Biologically active compounds were tested at least 3 independent times.

[7] = target: T1, catalytic subunit of bovine cardiac muscle PP2A (Bos taurus, UniProt P67774); experiment: PP2A activity with fluorescein diphosphate substrate in 96-well plates; assay type: biochemical; details: FIG. 6
T1 construct: purchased Gibco-BRL, Gaithersburg, Md; host or cells: bovine cardiac muscle
T1 sequence (P67774 whole entry): as above
Protocol: FIG. 6 is a graph of inhibition of PP2A activity by compound 1d. The catalytic subunit of PP2A was incubated with vehicle alone (control), calyculin A (10 nM) or compound 1d (100 uM), and the dephosphorylation of the substrate fluorescein diphosphate determined spectro-photometrically. Mean results of two independent experiments are shown; bars indicate the range.
In another suitable assay, the ability of the compounds of the present invention to inhibit the activity of protein phosphatase PP2A is assessed. The activity of the catalytic subunit of bovine cardiac muscle PP2A (Gibco-BRL, Gaithersburg, Md.) is measured in 96-well microtiter plates using the substrate fluorescein diphosphate as follows. […] Fluorescence emission from the product is measured spectrofluorometrically, for example with Perseptive Biosystems Cytofluor II (Framingham, Mass.) (excitation filter, 485 nm; emission filter, 530 nm). The rate of increase in absorbance due to formation of dephosphorylated substrate is proportional to phosphatase activity. Thus, decreased absorbance relative to control samples provides a measure of the ability of the present compounds to inhibit the phosphatase.
The activity of the catalytic subunit of bovine cardiac muscle PP2A (Gibco-BRL, Gaithersburg, Md.) was measured with fluorescein diphosphate (Molecular Probes, Inc., Eugene, Oreg.) as a substrate in 96-well microtiter plates. […]

[8] = system: PP1; details: cited from earlier work
[9] = system: PP3; details: background, literature; cited from earlier work
[10] = somewhat selective but weak inhibitors

PP2A (Homo sapiens, UniProt P67775), sequence (P67775 whole entry): as the sequence (P67774 whole entry) above

## C[C@@]12C(=O)OC(=O)[C@]1(C)[C@H]1CC[C@@H]2O1 [cantharidine]
[1]; [10]
  IC50: 160 to 10000 nM

## CCCCCCN(CCNC(=O)c1nc(-c2ccccc2)oc1C)C(=O)CCC(NC(=O)CCc1ccccc1)C(=O)O (stereo not drawn) [Compound 1h]
[2]
  PP1 remaining activity, percent of control: 63%
[3]
  PP2A remaining activity, % of control at 100 µM: 88%
[4]
  PP3 remaining activity, percent of control: 17%
[5]
  CDC25B activity remaining, percent of control: 69%
[6]; Homo sapiens, MDA-MB-231, 72 h continuous treatment, read-out: concentration causing 50% growth inhibition
  IC50: 20000 nM
[6]
  concentration dependence of growth inhibition (in words): no further cytotoxicity at higher drug concentrations

## CCCCCCCCCC(=O)NC(CCC(=O)N(C)CCNC(=O)c1nc(-c2ccccc2)oc1-c1ccccc1)C(=O)O (stereo not drawn) [Compound 1d]
[2]
  PP1 remaining activity, percent of control: 53%
[3]
  PP2A remaining activity, % of control at 100 µM: 69%
[4]
  PP3 remaining activity, percent of control: 33%
[7]; 100 μM
  inhibition at 100 µM: 50%
[5]
  CDC25B activity remaining, percent of control: 91%

## CO[C@H]([C@H](O)CC(=O)[C@@H](C)[C@@H](O)CC[C@@H](C)[C@@H]1O[C@]2(CC[C@@H](C)[C@H](CC[C@H](C)C(C)=O)O2)CC[C@@H]1C)[C@H](OC(=O)C[C@@H](O)C1=C(C)C(=O)OC1=O)C(C)C [Tautomycin]
[8]; background, literature
  IC50: ~15 nM
[1]
  IC50: ~15 nM
[9]
  IC50: ~15 nM

## thyrsiferal-23-acetate
[1]; [10]
  IC50: 160 to 10000 nM

## COC[C@@H]([C@H](O)[C@H](O)C(=O)NCC[C@H](C)c1nc(/C=C/C[C@@H]2O[C@]3(C[C@@H](O)[C@@H]2C)O[C@H]([C@H](C[C@H](O)[C@H](C)[C@H](O)[C@H](C)/C=C(C)/C(C)=C/C=C/C(C)=C\C#N)OC)[C@H](OP(=O)(O)O)C3(C)C)co1)N(C)C [calyculin A]
[7]; 10 nM
  inhibition of PP2A activity (in words): inhibited PP2A activity
[8]; background, literature
  IC50: ~0.3 nM
[1]
  IC50: ~0.3 nM
[9]
  IC50: ~0.3 nM

## C/C=C1/C(=O)N[C@@H](C(=O)O)[C@H](C)C(=O)N[C@@H](C(C)C)C(=O)N[C@@H](/C=C/C(C)=C/[C@H](C)[C@H](Cc2ccccc2)OC)[C@H](C)C(=O)N[C@@H](C(=O)O)CCC(=O)N1C [Motuporin]
[8]
  IC50: < 1 nM
